According to patent US6338963B1, “Use of carbon monoxide dependent guanylyl cyclase modifiers to stimulate neuritogenesis” (NeoTherapeutics, Inc., priority 1994, dated 2002):

What was measured:
CNTF mRNA = assay: RT-PCR of growth factor mRNA after T8 spinal cord hemisection: CNTF; format: in vivo, Wistar rats
Swiss Webster mice = assay: Locomotor activity (spontaneous movements), Swiss Webster mice; format: in vivo
Procedure: The activity of AIT-082 was compared with tacrine (THA) and physostigmine (PHY), experimental anticholinesterase agents which enhance memory in animals. The drugs were also evaluated for their effects on locomotor activity. In the win-shift memory paradigm, AIT-082 was evaluated for its ability to induce tolerance after 18 days of drug administration. In addition AIT-082 was tested for its activity to modify learning in a modified T-maze discrimination task.
The drugs used in this example are 4-((3-(1,6-dihydro-6-oxo-9-purin-9-yl)-1-oxopropyl)amino) benzoic acid (AIT-082), as an exemplary potassium salt, tacrine hydrochloride (tetrahydroaminoacridine, THA, Sigma Chemical Co., St. Louis, Mo.), and physostigmine, hemisulfate salt (PHY, Sigma Chemical Co., St. Louis, Mo.). The drugs were dissolved in saline and prepared fresh daily. All injections were made at a volume of 0.1 ml/10 grams body weight. When testing drug effects, intraperitoneal (i.p.) injections of AIT-082 or THA were made one hour prior to the start of testing. Due to its shorter duration of action, PHY was injected 30 minutes prior to testing. Control subjects receive a similar injection of saline (vehicle).

[1] = test system: cultured neurons from rat cerebral cortex; assay: NMDA-induced toxicity in cultured rat cortical neurons, astrocyte conditioned medium; format: cell-based; conditions: CM from astrocytes treated 6 hours with AIT-082
Procedure: In these experiments, cultured neurons were prepared from rat cerebral cortex. In these cultures the NMDA pulse (100 μM for 10 min) provoked about 80% neuronal death (measured by Trypan blue cell staining or LDH activity). Separately, cultured astrocytes were treated for 6 hours with AIT-082. Then, the medium containing the drug was replaced with fresh medium without the drug and the astrocyte cultures were maintained in this medium for the next 24 hours. This medium represented the CM and was added to neurons soon after the toxic pulse with NMDA. The addition of CM partly counteracted the toxic effects caused by NMDA, reducing the neuronal damage by about 50%. If the medium was boiled for 20 min at 100° C. prior to addition to NMDA-damaged neurons, it completely lost the protective activity. […] To verify whether the neuroprotection caused by AIT-082 was ascribable to the production of TGFβ2 or NGF, antibodies to TGFβ2 or to NGF (100 ng/ml) were added together with CM.
Conversely, when DPCPX (100 nm) was added to astrocyte cultures together with AIT-082, the neuroprotective effect of the resulting CM deriving from the culture of the astrocytes with AIT-082 was reduced by only 20%, as compared to the neuroprotective effect of CM derived from astrocytes exposed to AIT-082 alone (assumed as equal to 100%).

mice = assay: Elevated Plus maze (anxiety); format: in vivo
Text: A Plus maze was constructed of black plexiglass consisting of two opposite-facing open arms (30×5 cm, L×W) and two opposite facing closed arms (30×5×15 cm, L×W×H). The walls of the closed arms were clear plexiglass and the four arms were connected by a central area 5×5 cm. The entire Plus maze was mounted on a base 38 cm above the floor. Testing consisted of placing the subject at one end of one of the open arms. The time the subject took to leave the start position (the first 10 cm of the open arm) was recorded. The time it took for the subject to enter halfway into one of the closed arms was also recorded. When the subject arrived at the half-way point in the closed arm, the three-minute test session began. During the three-minute test session, the number of times the subject entered the open arms was recorded. An entry was defined as placing at least two paws onto the platform of the open arm.

[2] = test system: cultured rat hippocampal neurons; assay: NMDA-induced toxicity in cultured rat hippocampal neurons, astrocyte conditioned medium
Procedure: To determine whether or not AIT-082 afforded in vitro neuroprotection, the effect of AIT-082 on toxicity induced by N-methyl-D-aspartate (NMDA) in cultured rat hippocampal neurons was studied.
To determine whether AIT-082 protected against neuronal toxicity induced by NMDA, and whether astrocytes might be involved, cultured astrocytes were exposed to AIT-082 for 6 hr. The drug was then removed and cultures were kept in fresh medium for the following 20 hr. This conditioned medium was then added to primary cultures of rat hippocampal neurons on the seventh day in vitro, immediately after they had been exposed to a toxic pulse of NMDA.
It was next evaluated whether the addition of conditioned medium (CM) deriving from astrocyte cultures treated with 100 μM AIT-082 generated protection against damage induced by a toxic pulse with 100 μM NMDA in cultured neurons.
The effects of NMDA are shown in FIG. 66A on cortical cells and in FIG. 66B for hippocampal cells.

CNTF = assay: Summary of effects on growth factor mRNA and protein (Table R): CNTF; parameters: key: ± = mRNA; + = protein; nt = not tested
Text: The constellation of effects of AIT-082 on production of mRNA encoding growth factors and on production of growth factor proteins is shown in Table R. The results summarized in […] show both transcriptional and translational effects on growth factors that are in the categories of neurotrophins, pleiotrophins, members of the S100 family of EF hand calcium binding proteins, and members of the TGFβ superfamily. As indicated, effects have been shown at both the mRNA (transcriptional) and protein (translational) levels.

38 isolated receptors = assay: Receptor ligand binding in vitro (Nova Labs)

**Q.** For `O=C(CCn1cnc2c(=O)[nH]cnc21)Nc1ccc(C(=O)O)cc1` [AIT-082, N-4-carboxyphenyl-3-(6-oxohydropurin-9-yl)propanamide], which “CNTF mRNA level” value (CNTF mRNA; at the level of the lesion) is on record?
**A.** increased mean CNTF mRNA levels over control animals, although not statistically so

**Q.** And the “CNTF mRNA level” value (CNTF mRNA; caudal to lesion, 7 days)?
**A.** no significant effects

**Q.** And the “CNTF mRNA level” value (CNTF mRNA; rostral to lesion, 3 days, sham-operated over lesion animals)?
**A.** significantly increased

**Q.** And the “CNTF mRNA level” value (CNTF mRNA; rostral to lesion, 7 days, control animals, over water alone (p=0.017))?
**A.** robust increase

**Q.** And the “CNTF mRNA level” value (CNTF mRNA; rostral to lesion, 7 days, relative to lesion alone (p=0.056))?
**A.** increased CNTF mRNA levels

**Q.** And the “Locomotor Activity” value (Swiss Webster mice; AIT-082 0.5 mg/kg)?
**A.** 323 Spontaneous movements per hour

**Q.** What about the “Locomotor Activity” value (Swiss Webster mice; AIT-082 30.0 mg/kg) of the same compound?
**A.** 378 Spontaneous movements per hour

**Q.** What about the “reduction of neuronal damage caused by NMDA” value [1] of the same compound?
**A.** about 50%

**Q.** What about the “anxiogenic effect in Plus maze” value (mice; 0.005 to 0.5 mg/kg) of the same compound?
**A.** not observed

**Q.** And the “anxiogenic effect in Plus maze” value (mice; 30 mg/kg)?
**A.** slight anxiogenic effect

**Q.** And the “anxiogenic effect in Plus maze” value (mice; 60 mg/kg)?
**A.** not observed

**Q.** And the “reduction of cell damage” value ([2]; combination of 100 μM AIT-082 and CM, hippocampal cells, 100 μM NMDA)?
**A.** 70-80%

**Q.** And the “reduction of the number of dead neurons and the production of LDH caused by NMDA” value ([2]; conditioned medium from astrocytes treated with AIT-082 (50-100 μM) for 6 hr)?
**A.** 50%

**Q.** And the “CNTF, effect on mRNA/protein production” value (CNTF; Lesioned Spinal Cord)?
**A.** ±

**Q.** And the “CNTF, effect on mRNA/protein production” value (CNTF; Normal Spinal Cord)?
**A.** ±

**Q.** And the “inhibition of ligand binding” value (38 isolated receptors)?
**A.** no activity
